Measurements: patent US11214536B2, “Polymorphs and uses thereof” (Inspirna, Inc., priority 2017, dated 2022)

Experiment: Dynamic Vapor Sorption (DVS), hygroscopicity, with XRPD of the post-DVS solid
Assay type: physicochemical
Settings: for mass uptake at 90% RH by DVS analysis: 25° C., DVS sorption/desorption cycles; for hygroscopic nature by DVS analysis: assessed from mass uptake at 90% RH; for solid form of the post-DVS sample (XRPD): XRPD analysis on solid retained after DVS
Procedure: Approximately, 10-20 mg of sample was placed into a mesh vapor sorption balance pan and loaded into a DVS Advantage dynamic vapor sorption balance by Surface Measurement Systems. The sample was subjected to a ramping profile from 40-90% relative humidity (RH) at 10% increments, maintaining the sample at each step until a stable weight had been achieved (dm/dt 0.004%, minimum step length 30 minutes, maximum step length 500 minutes) at 25° C. After completion of the sorption cycle, the sample was dried using the same procedure to 0% RH and then a second sorption cycle back to 40% RH. Two cycles were performed. The weight change during the sorption/desorption cycles were plotted, allowing for the hygroscopic nature of the sample to be determined. XRPD analysis was then carried out on any solid retained.

Row | mass uptake at 90% RH by DVS analysis | hygroscopic nature by DVS analysis | solid form of the post-DVS sample (XRPD) | mass uptake at 90% RH by DVS analysis (listed as amorphous compound) | SMILES
1 | about 2.3% | slightly hygroscopic | no significant change in the solid form |  | CC(CCOc1cccc(CC(=O)O)c1)N(Cc1cccc(C(F)(F)F)c1Cl)CC(c1ccccc1)c1ccccc1 (stereo not shown) [Form 6]
2 | about 6.17% | highly hygroscopic | remained amorphous | about 6.17% | CC(CCOc1cccc(CC(=O)O)c1)N(Cc1cccc(C(F)(F)F)c1Cl)CC(c1ccccc1)c1ccccc1 (stereo not shown) [amorphous material]
3 | about 1.16% | slightly hygroscopic | no change in the solid form |  | CC(CCOc1cccc(CC(=O)O)c1)N(Cc1cccc(C(F)(F)F)c1Cl)CC(c1ccccc1)c1ccccc1 (stereo not shown) [Form 4]
4 | about 2.7% | slightly hygroscopic | partially amorphous Form 5 material |  | CC(CCOc1cccc(CC(=O)O)c1)N(Cc1cccc(C(F)(F)F)c1Cl)CC(c1ccccc1)c1ccccc1 (stereo not shown) [Form 5]
